In paper PMC4506051, “Pharmacokinetic Profiles of Active Ingredients and Its Metabolites Derived from Rikkunshito, a Ghrelin Enhancer, in Healthy Japanese Volunteers: A Cross-Over, Randomized Study” (PLoS ONE, 2015):

Columns and labels:
[1] = Exploratory trial: plasma concentration of rikkunshito ingredients after single oral rikkunshito 7.5 g; assay type: in vivo
Description: A random sequence was generated using a computer. The safety endpoint was evaluated in all volunteers.
(§1) In the first exploratory trial, 20-mL blood samples were collected from the cutaneous vein in the subjects’ forearm via a blood sampling tube that contained heparin at 0 (preadministration), 0.5, 1, 2, 4, and 8 h after a single oral administration of rikkunshito (Lot E24652). The dose of rikkunshito used in this trial was 7.5 g/day, which is the clinical daily dose, to widely explore rikkunshito-derived ingredients that enter the blood. Along with plasma, urine samples were collected at three points: between dinner and bedtime (preadministration), between 0 and 4 h after administration, and between 4 and 8 h after administration. The blood was immediately centrifuged at 1700 ×g for 10 min to obtain plasma. Plasma and urine fractions were stored at −80°C or lower until analysis.
(§2) For quantification of synephrine, 5 µL of standard solution or methanol was added to 100 µL plasma or urine samples followed by mixing. Ten microliters of erythromycin [internal standard (IS)] solution was added to the solutions followed by mixing and centrifugation (20,400 ×g, 5 min, 4°C). The supernatants were loaded onto an Ostro 96-well plate (Waters) and centrifuged (1500 ×g, 3 min, 4°C) followed by injection into the LC–MS/MS.
(§3) For quantification of 30 ingredients other than atractylodin and synephrine, 25 µL of standard solution or methanol was added to 500 µL plasma or urine samples followed by mixing. Atractylenolide III or digoxin (IS) solution (50 μL) was added to the solutions followed by mixing. For urine, 400 µL of blank plasma was added to the solutions. Ammonium acetate solution (100 mM, 100 or 400 µL) was added to the solutions followed by mixing. For enzymatic treatment, plasma and urine samples were incubated with β-glucuronidase (100 units in 100 mM ammonium acetate) for 2 h at 37°C. A solid-phase cartridge (OASIS HLB, 30 mg/1cc, Waters) was conditioned with methanol and 10 mM ammonium acetate solution, and the samples were loaded onto the cartridge. The cartridge was washed water : methanol (9:1, v/v), and 1.5 mL of methanol and 30 µL of propylene glycol were added to the cartridge to elute the analytes. The mixtures were dried at 25°C under a stream of nitrogen gas. Furthermore, 100 μL of 10 mM ammonium acetate : methanol (8:2, v/v) was added to the dried samples followed by mixing and sonication. The solutions were filtered (0.22 µm) and followed by injection into the LC–MS/MS system. […] Those analytical conditions are summarized in S2 Table and S3 Table.

[2] = Stability of ingredients in gastric pH solution (pH 1.2, 37°C); assay type: physicochemical
Description: Rikkunshito gradually dissolved in acidic solution (pH 1.2) at 37°C, and the concentration of atractylodin after adding 0.25, 0.5, 1, and 2 h was measured by gas chromatography–mass spectrometry.

[3] = Exploratory trial: amount of rikkunshito ingredients in urine; assay type: in vivo, human; conditions: mean ± S.D., n = 4; for Amount in urine, 0–4 h: 0–4 h after single oral rikkunshito 7.5 g; for Amount in urine, 4–8 h: 4–8 h after single oral rikkunshito 7.5 g; for Amount in urine, Pre: preadministration (between dinner and bedtime)
Description: as §1, §2, §3

[4] = rikkunshito in acidic solution (pH 1.2) at 37°C, 0.5 h
[5] = rikkunshito in acidic solution (pH 1.2) at 37°C, 1 h
[6] = rikkunshito in acidic solution (pH 1.2) at 37°C, 2 h

Plasma concentration, 0 h ([1]; in vivo, po) | Plasma concentration, 1 h ([1]; in vivo, po) | Plasma concentration, 2 h ([1]; in vivo, po) | Plasma concentration, 8 h ([1]; in vivo, po) | Stability in gastric pH solution, Quantitative value ([2]; 0.5 h, pH 1.2) [ng/mL] | Stability in gastric pH solution, Quantitative value ([2]; 1 h, pH 1.2) [ng/mL] | Stability in gastric pH solution, Quantitative value ([2]; 2 h, pH 1.2) [ng/mL] | Amount in urine, 0–4 h [3] | Amount in urine, 4–8 h [3] [ng] | Amount in urine, Pre [3] | Structure (SMILES) | Plasma concentration, 0.5 h ([1]; in vivo, po) | Stability in gastric pH solution, Quantitative value [2, 4] [ng/mL] | Stability in gastric pH solution, Quantitative value [2, 5] [ng/mL] | Stability in gastric pH solution, Quantitative value [2, 6] [ng/mL] | further results
BQL | BQL | BQL | BQL | 297 | 202 | 86.4 | – | – | – | CC(C)=CCC[C@](C)(O[C@@H]1O[C@H](CO[C@@H]2O[C@H](CO)[C@@H](O)[C@H](O)[C@H]2O)[C@@H](O)[C@H](O)[C@H]1O)[C@H]1CC[C@]2(C)[C@@H]1[C@H](O)C[C@@H]1[C@@]3(C)CC[C@H](O[C@@H]4O[C@H](CO)[C@@H](O)[C@H](O)[C@H]4O[C@@H]4O[C@H](CO)[C@@H](O)[C@H](O)[C@H]4O)C(C)(C)[C@@H]3CC[C@]12C [Ginsenoside Rb1] | BQL | – | – | – | concentration at 4 h ([1]; human, in vivo, po): 0.175 ± 0.118 ng/mL
– | – | – | – | 275 | 168 | 77.3 | 202 ± 202 ng | 84.6 ± 90.1 | BQL | CC(C)=CCC[C@](C)(O[C@@H]1O[C@H](CO[C@@H]2OC[C@H](O)[C@H](O)[C@H]2O)[C@@H](O)[C@H](O)[C@H]1O)[C@H]1CC[C@]2(C)[C@@H]1[C@H](O)C[C@@H]1[C@@]3(C)CC[C@H](O[C@@H]4O[C@H](CO)[C@@H](O)[C@H](O)[C@H]4O[C@@H]4O[C@H](CO)[C@@H](O)[C@H](O)[C@H]4O)C(C)(C)[C@@H]3CC[C@]12C [Ginsenoside Rb2] | – | – | – | – | –
BQL | BQL | BQL | BQL | 188 | 115 | 39.3 | – | – | – | CC(C)=CCC[C@](C)(O[C@@H]1O[C@H](CO[C@@H]2O[C@@H](CO)[C@H](O)[C@H]2O)[C@@H](O)[C@H](O)[C@H]1O)[C@H]1CC[C@]2(C)[C@@H]1[C@H](O)C[C@@H]1[C@@]3(C)CC[C@H](O[C@@H]4O[C@H](CO)[C@@H](O)[C@H](O)[C@H]4O[C@@H]4O[C@H](CO)[C@@H](O)[C@H](O)[C@H]4O)C(C)(C)[C@@H]3CC[C@]12C [Ginsenoside Rc] | BQL | – | – | – | concentration at 4 h ([1]; human, in vivo, po): 0.0303 ± 0.0605 ng/mL
– | – | – | – | 98.5 | 68.1 | 20.3 | – | – | – | CC(C)=CCC[C@](C)(O[C@@H]1O[C@H](CO)[C@@H](O)[C@H](O)[C@H]1O)[C@H]1CC[C@]2(C)[C@@H]1[C@H](O)C[C@@H]1[C@@]3(C)CC[C@H](O[C@@H]4O[C@H](CO)[C@@H](O)[C@H](O)[C@H]4O[C@@H]4O[C@H](CO)[C@@H](O)[C@H](O)[C@H]4O)C(C)(C)[C@@H]3CC[C@]12C [Ginsenoside Rd] | – | – | – | – | Plasma concentration, 0 h ([1]; 0 h (preadministration), single oral rikkunshito 7.5 g, mean ± S.D., n = 4): BQL; Plasma concentration, 0.5 h ([1]; 0.5 h after single oral rikkunshito 7.5 g, mean ± S.D., n = 4): BQL; Plasma concentration, 2 h ([1]; 2 h after single oral rikkunshito 7.5 g, mean ± S.D., n = 4): BQL; Plasma concentration, 4 h ([1]; 4 h after single oral rikkunshito 7.5 g, mean ± S.D., n = 4): BQL; Plasma concentration, 8 h ([1]; 8 h after single oral rikkunshito 7.5 g, mean ± S.D., n = 4): BQL; concentration at 1 h ([1]; human, in vivo, 1 h after single oral rikkunshito 7.5 g, mean ± S.D., n = 4): 0.0308 ± 0.0615 ng/mL
– | – | – | – | 96.7 | 58.4 | 23.7 | BQL | 30.6 ± 61.2 | BQL | CC(C)=CCC[C@](C)(O[C@@H]1O[C@H](CO)[C@@H](O)[C@H](O)[C@H]1O)[C@H]1CC[C@]2(C)[C@@H]1[C@H](O)C[C@@H]1[C@@]3(C)CC[C@H](O)C(C)(C)[C@@H]3[C@@H](O[C@@H]3O[C@H](CO)[C@@H](O)[C@H](O)[C@H]3O[C@@H]3O[C@@H](C)[C@H](O)[C@@H](O)[C@H]3O)C[C@]12C [Ginsenoside Re] | – | – | – | – | –
– | – | – | – | 174 | 118 | 41.6 | 620 ± 331 ng | 638 ± 319 | BQL | CC(C)=CCC[C@](C)(O[C@@H]1O[C@H](CO)[C@@H](O)[C@H](O)[C@H]1O)[C@H]1CC[C@]2(C)[C@@H]1[C@H](O)C[C@@H]1[C@@]3(C)CC[C@H](O)C(C)(C)[C@@H]3[C@@H](O[C@@H]3O[C@H](CO)[C@@H](O)[C@H](O)[C@H]3O)C[C@]12C [Ginsenoside Rg1] | – | – | – | – | –
BQL | BQL | BQL | BQL | 5.50 | 6.62 | 5.95 | – | – | – | COc1ccc(-c2cc(=O)c3c(OC)c(OC)c(OC)c(OC)c3o2)cc1 [Tangeretin] | – | – | – | – | concentration at 0.5 h ([1]; human, in vivo, po): 0.00573 ± 0.0115 ng/mL; Plasma concentration, 4 h ([1]; in vivo, po): BQL
– | – | – | – | – | – | – | – | – | – | CCCCCCCCC[C@H](O)CC(=O)CCc1ccc(O)c(OC)c1 [[10]-gingerol, [10]-Gingerol] | – | 8.07 | 7.53 | 7.62 | –
– | – | – | – | – | – | – | – | – | – | CC(C)=CCC[C@](C)(O)[C@H]1CC[C@]2(C)[C@@H]1[C@H](O)C[C@@H]1[C@@]3(C)CC[C@H](O)C(C)(C)[C@@H]3[C@@H](O[C@@H]3O[C@H](CO)[C@@H](O)[C@H](O)[C@H]3O[C@@H]3O[C@@H](C)[C@H](O)[C@@H](O)[C@H]3O)C[C@]12C [ginsenoside Rg2, Ginsenoside Rg2] | – | 121 | 157 | 126 | –

Structure (SMILES) | Plasma concentration, 0 h ([1]; in vivo, po) | Plasma concentration, 1 h ([1]; in vivo, po) | Plasma concentration, 2 h ([1]; in vivo, po) | Plasma concentration, 8 h ([1]; in vivo, po) | Stability in gastric pH solution, Quantitative value ([2]; 0.5 h, pH 1.2) [ng/mL] | Stability in gastric pH solution, Quantitative value ([2]; 1 h, pH 1.2) [ng/mL] | Stability in gastric pH solution, Quantitative value ([2]; 2 h, pH 1.2) [ng/mL] | Amount in urine, 0–4 h [3] | Amount in urine, 4–8 h [3] [ng] | Amount in urine, Pre [3] | Plasma concentration, 0.5 h ([1]; in vivo, po) | Stability in gastric pH solution, Quantitative value [2, 4] [ng/mL] | Stability in gastric pH solution, Quantitative value [2, 5] [ng/mL] | Stability in gastric pH solution, Quantitative value [2, 6] [ng/mL] | further results
CC(C)=CCC[C@](C)(O)[C@H]1CC[C@]2(C)[C@@H]1[C@H](O)C[C@@H]1[C@@]3(C)CC[C@H](O)C(C)(C)[C@@H]3[C@@H](O[C@@H]3O[C@H](CO)[C@@H](O)[C@H](O)[C@H]3O[C@@H]3O[C@H](CO)[C@@H](O)[C@H](O)[C@H]3O)C[C@]12C [Ginsenoside Rf] | – | – | – | – | – | – | – | 48.2 ± 64.4 ng | 23.0 ± 20.4 | BQL | – | 190 | 159 | 113 | –
CC1(C)[C@@H](O[C@@H]2O[C@H](C(=O)O)[C@@H](O)[C@H](O)[C@H]2O)CC[C@]2(C)[C@H]3C(=O)C=C4[C@@H]5C[C@@](C)(C(=O)O)CC[C@]5(C)CC[C@@]4(C)[C@]3(C)CC[C@@H]12 [Glycyrrhetic acid 3-O-glucuronide, Glycyrrhetinic acid 3-O-glucuronide] | BQL | 0.0448 ± 0.0895 ng/mL | 0.244 ± 0.0735 ng/mL | 0.247 ± 0.0622 ng/mL | – | – | – | BQL | 6.94 ± 13.9 | BQL | BQL | – | – | – | Plasma concentration, 4 h ([1]; in vivo, po): 0.327 ± 0.0656 ng/mL
CC1(C)CC[C@]2(C(=O)O)CC[C@]3(C)C(=CC[C@@H]4[C@@]5(C)CC[C@H](O)C(C)(C)[C@@H]5CC[C@]43C)[C@@H]2C1 [Oleanolic acid] | BQL | BQL | – | – | – | – | – | – | – | – | BQL | 3.61 | 3.54 | 3.28 | concentration at 2 h ([1]; human, in vivo, po): 0.198 ± 0.395 ng/mL; concentration at 4 h ([1]; human, in vivo, po): 0.903 ± 0.983 ng/mL; concentration at 8 h ([1]; human, in vivo, po): 1.12 ± 0.89 ng/mL; Cmax ([1]; human, in vivo, rikkunshito 7.5 g, four subjects, highest mean concentration over 0–8 h, read-out: C max in plasma (exploratory trial)): 1.12 ng/mL
